Results: patent US10266482B2, “Long-term memory inducing agent” (NATIONAL UNIVERSITY CORPORATION TOKYO MEDICAL AND DENTAL …, priority 2017, dated 2019)

System: young crickets
Assay: Olfactory associative learning test in young crickets (single-time training, memory a day after)
Format: in vivo, Gryllus bimaculatus
Method: Male crickets about one week old (young) or three week old (aged) following molting into adult forms were used. Each of the crickets was placed into a 100 ml beaker three days before the experiment, and deprived of water for 2-3 days to enhance the desire of taking water. As the feed, about 10 pieces of insect feed were placed into the beaker.
A 1-ml syringe was used for smell and reward associative conditioning upon learning/training. The syringe contained water as the reward while a piece of paper (3 mm×3 mm) perfumed with peppermint essence was pierced into the needle to about 1 cm from the tip thereof. In this learning/training, the filter paper on the needle was brought near the antennae of the cricket to allow it to smell for 3 seconds and then a drop of water was put out from the tip of the needle and applied to the mouth of the cricket. When the associative conditioning was conducted for four times, the conditionings were conducted at intervals of 5 minutes.
Smell preference was examined by placing each cricket into a test arena. The arena consisted of a “standby chamber” and a “test chamber”. The floor of the “test chamber” had two holes each with a diameter of 4 cm which were communicated with two smell sources. The smell source was a plastic pot containing filter paper perfumed with essence of a smell (peppermint or vanilla) and covered with a gauze lid. In the preference test, each cricket was placed into the test chamber and allowed to walk freely for 4 minutes to search for the two smell sources. Two minutes after the start of the test, a rotary board having the smell sources was rotated to reverse the positions of the vanilla and the peppermint smells. During the test, the time the cricket spent placing its mouth to the gauze of the smell source was measured as a visiting time to the smell source, and the ratio of the visiting times of the two types of smells (PI value: preference index) was calculated according to the following formula to assess the relative preference to the mint smell. PI value=Tp/(Tp+Tv)×100 • Tp: Searching time for smell associated with the reward (peppermint) • Tv: Searching time for smell not associated with the reward (vanilla)
If the preferences for the two smells are equivalent, PI will be 50. Since crickets inherently prefer vanilla smell over peppermint smell, an average PI value prior to the learning/training is usually 25-35, The preference test was conducted before and after the learning/training to examine whether preference for the smell changes due to the learning/training.
As drugs, melatonin, N(1)-acetyl-N(2)-formyl-5-methoxykynuramine (AFMK), N(1)-acetyl-5-methoxykynuramine (AMK), 6-Hydroxymelatonin (6-HM), L-kynurenine, kynuramine, 8-Bromoguanoine 3′,5′-cyclic monophosphate sodium salt (8 br-cGMP) and cycloheximide (CHX) were used. Melatonin, 6-HM, kynurenine, kynuramine and 8br-cGMP were purchased from SIGMA Aldrich, AFMK was purchased from Cayman Chemical, AMK was purchased from Toronto Research Chemicals and CHX was purchased from Wako Pure Chemical Industries. The drugs other than 8br-cGMP and CHX were first dissolved in ethanol and then diluted with physiological saline for crickets to the respective concentrations. In the administration experiment, 3 μl was administered using a 10-μl syringe to the brain via an aperture opened through a simple eye of the head.
PI values were tested before the training and a day after the training in the same group by a Wilcoxon's-test.

`COc1ccc(N)c(C(=O)CCNC(C)=O)c1` [Compound 1, N-[3-(2-amino-5-methoxyphenyl)-3-oxopropyl]-acetamide] was tested. Which “long-term memory formation a day after the training” value (“long-term memory formation a day” below) (8 nM, 3 μl to the brain, 20 minutes after single-time training) did it give?
Its value is “not”.

What about the “sufficient concentration relative to the concentration of melatonin” value (40 nM AMK versus 5 μM melatonin) of the same compound?
The value was 1/125.

And the “long-term memory formation a day” value (40 nM, 3 μl to the brain, 20 minutes after single-time training)?
Its value is “formed”.

And the “long-term memory formation a day” value (0.2 μM, 3 μl to the brain, 20 minutes after single-time training)?
The value was “formed”.

And the “long-term memory formation a day” value (1 μM, 3 μl to the brain, 20 minutes after single-time training)?
Its value is “formed”.

What about the “long-term memory formation a day” value (1 μM, 3 μl, administered between 20 minutes and 80 minutes after single-time training) of the same compound?
Its value is “a long-term memory was formed”.

What about the “long-term memory formation a day” value (5 μM, 3 μl to the brain, 20 minutes after single-time training, listed as AMK) of the same compound?
Its value is “long-term memories were formed”.

What about the “long-term memory formation a day” value (5 μM, 3 μl to the brain, 20 minutes before single-time training) of the same compound?
Its value is “long-term memories were formed”.

What about the “administration concentration sufficient to form long-term memory” value (3 μl to the brain 20 minutes after single-time training) of the same compound?
Its value is 40 nM.

What about the “timing of administration sufficient to form long-term memory” value (time following the single-time training, melatonin and AFMK 5 μM, AMK 1 μM) of the same compound?
The value was “up to 80 minutes”.
